# Values joined by “and” are separate entries in the source; they are usually repeats but may differ in a detail not shown here. Identical values can stand only once.
# Legend:
# [1] = tested on: A/PR/8/34 virus; assay: Influenza A viral growth assay (viral titer of culture media); format: cell-based, influenza A H1N1 virus; set-up: viral titer of culture media, individual replicate / viral titer of culture media, ave: unit not given here; details: A/PR/8/34 (PR8), 12.5uM, average of #1-3 exp (n=9)
# [2] = tested on: A/WSN/33 virus; assay: as above; format: cell-based, influenza A H1N1 virus; details: A/WSN/33 (WSN), 12.5uM, average of #1-3 exp (n=9)
# [3] = tested on: A/PR/8/34 virus; assay: RT-qPCR of viral mRNAs (NP, NS1, PA, PB1, PB2, M2) in infected MDCK cells; format: cell-based, influenza A H1N1 virus
# [4] = tested on: A/PR/8/34 virus; format: cell-based; details: 12.5 μM, 24h WB
# [5] = tested on: canine interferon-β (Ifn-β); assay: RT-qPCR of Ifn-β mRNA in MDCK cells with or without A/PR/8/34 virus; format: cell-based; details: 12.5uM, relative to virus - DMSO; for MDCK IFN-b mRNA, ave: ave of #1-3 exp; for MDCK IFN-b mRNA, individual replicates: replicates 1-3 of #1, #2, #3 exp, listed as Cyclobakuchiol C
# [6] = tested on: NAD(P)H quinone oxidoreductase 1 (Nqo1); assay: RT-qPCR of Nqo1 mRNA in MDCK cells with or without A/PR/8/34 virus; format: cell-based, canine; details: 12.5uM, MDCK, relative to virus - DMSO; for NQO1 Canis lupus mRNA, ave: ave of #1-3 exp; for NQO1 Canis lupus mRNA, individual replicates: replicates 1-3 of #1, #2, #3 exp, listed as Cyclobakuchiol C
# [7] = tested on: Nrf2; assay: Nrf2 reporter assay (dual luciferase system) in MDCK cells; format: cell-based, canine; details: 12.5uM, relative to DMSO trans+
# Method: An Nrf2 reporter assay based on the dual luciferase system was performed as previously described. The plasmid pNQO1-ARE (antioxidant response element)-Fluc, provided by Yamamoto M., expressed a Firefly luciferase gene driven by Nrf2 activation, while the plasmid pRL-TK-Rluc vector (Promega, CA, USA) expressed a Renilla luciferase gene driven by the herpes simplex viral thymidine kinase promoter as an internal control. MDCK cells were seeded in a 24-well plate at 1 × 10^5 cells/well and transfected with pNQO1-ARE-luc (0.25 μg) and pRL-TK-Rluc (0.25 μg). At 24 h post-transfection, the cells were treated with 12.5 μM cyclobakuchiols A–D in the infection medium at 37°C under 5% CO2. DMSO (0.125%) and 12.5 μM 1 were used as negative and positive controls, respectively. Total RNA was extracted from the MDCK cell lysates after 24 h of incubation. The levels of Firefly and Renilla luciferase mRNAs were analyzed by RT-qPCR and normalized to that of β-actin mRNA.
# [8] = tested on: A/PR/8/34 virus; assay: Immunofluorescence staining of viral NP in influenza A virus-infected MDCK cells; details: for NP/DAPI (%) ave: average of 9 wells
# [9] = tested on: A/WSN/33 virus; assay: as above; details: WSN
# [10] = MDCK cells, PR8 virus, relative to DMSO (about 1), ave of #1-3 exp (9 values)
# [11] = MDCK cells, PR8 virus, relative to DMSO, replicates 1-3 of #1, #2, #3 exp, listed as Cyclobakuchiol C
# [12] = single experiment, listed as cyclo C
compound,measurement,setting,value
C=C[C@]1(C)CCC(C(C)(C)O)C(c2ccc(O)cc2)C1 (stereo in doubt) [cyclobakuchiol C],"viral titer of culture media, ave",[1]; 12h,33333.3
same,"viral titer of culture media, ave",[1]; 24h,52222.2
same,"viral titer of culture media, ave",[1]; 48h,37777.8
same,"viral titer of culture media, ave",[1]; 72h,43333.3
same,"viral titer of culture media, ave",[2]; 12h,8288.89
same,"viral titer of culture media, ave",[2]; 24h,21277778
same,"viral titer of culture media, ave",[2]; 48h,246888889
same,"viral titer of culture media, ave",[2]; 72h,155211111
same,"PR8 NP gene expression qPCR, ave","[3]; MDCK PR8, NP mRNA, relative (DMSO about 1), average of #1-3 exp (n=9)",0.0715
same,"PR8 NP gene expression qPCR, individual replicate","[3]; MDCK PR8, NP mRNA, relative (DMSO about 1), replicates of #1-3 exp, listed as Cyclobakuchiol C",0.02965 and 0.0515 and 0.04036 and 0.08601 and 0.1343 and 0.1201 and 0.1206 and 0.03078 and 0.03024
same,"PR8 NS1 gene expression qPCR, ave","[3]; MDCK PR8, NS1 mRNA, relative (DMSO about 1), average of #1-3 exp (n=9)",0.04238
same,"PR8 NS1 gene expression qPCR, individual replicate","[3]; MDCK PR8, NS1 mRNA, relative (DMSO about 1), replicates of #1-3 exp, listed as Cyclobakuchiol C",0.02453 and 0.03462 and 0.02897 and 0.02312 and 0.08062 and 0.06227 and 0.07687 and 0.03138 and 0.01906
same,"PR8 PA gene expression qPCR, ave","[3]; MDCK PR8, PA mRNA, relative (DMSO about 1), average of #1-3 exp (n=9)",0.04976
same,"PR8 PA gene expression qPCR, individual replicate","[3]; MDCK PR8, PA mRNA, relative (DMSO about 1), replicates of #1-3 exp, listed as Cyclobakuchiol C",0.02841 and 0.03504 and 0.0209 and 0.04366 and 0.1014 and 0.08076 and 0.0804 and 0.03232 and 0.02491
same,"PR8 M2 gene expression qPCR, ave",[3]; [10],0.05203
same,"PR8 PB1 gene expression qPCR, ave",[3]; [10],0.0394
same,"PR8 PB2 gene expression qPCR, ave",[3]; [10],0.05178
same,"PR8 M2 gene expression qPCR, individual replicates",[3]; [11],0.02539 and 0.04593 and 0.02488 and 0.06301 and 0.1078 and 0.07697 and 0.07009 and 0.03046 and 0.02377
same,"PR8 PB1 gene expression qPCR, individual replicates",[3]; [11],0.02851 and 0.01826 and 0.01255 and 0.01866 and 0.09078 and 0.07015 and 0.07353 and 0.02182 and 0.02034
same,"PR8 PB2 gene expression qPCR, individual replicates",[3]; [11],0.02749 and 0.04527 and 0.0229 and 0.05473 and 0.1042 and 0.07786 and 0.07787 and 0.03099 and 0.02468
same,NP/b-actin ave,[4]; average of 3 experiments,0.8052
same,NS1/b-actin ave,[4]; average of 3 experiments,0.5534
same,"NP mean (western blot signal intensity, ImageJ)",[4]; [12],91.764 and 95.052 and 111.845
same,NP/b-actin,[4]; [12],0.819 and 0.7 and 0.8964
same,NS1/b-actin,[4]; [12],0.4287 and 0.5327 and 0.6988
same,"NS1 mean (western blot signal intensity, ImageJ)",[4]; [12],69.827 and 74.096 and 58.545
same,"MDCK IFN-b mRNA, ave",[5]; virus +,8.927
same,"MDCK IFN-b mRNA, individual replicates",[5]; virus +,3.309 and 15.7023 and 10.0086 and 14.1468 and 10.7403 and 6.351 and 9.878 and 6.251 and 3.957
same,"MDCK IFN-b mRNA, ave",[5]; virus -,1.684
same,"MDCK IFN-b mRNA, individual replicates",[5]; virus -,0.8094 and 4.073 and 2.562 and 3.148 and 0.7696 and 1.281 and 1.389 and 0.8375 and 0.2824
same,"NQO1 Canis lupus mRNA, ave",[6]; virus + (PR8),1.3
same,"NQO1 Canis lupus mRNA, individual replicates",[6]; virus + (PR8),1.5721 and 1.53 and 1.546 and 1.742 and 0.864 and 0.8958 and 0.9507 and 1.371 and 1.2312
same,"NQO1 Canis lupus mRNA, ave",[6]; virus -,1.195
same,"NQO1 Canis lupus mRNA, individual replicates",[6]; virus -,1.246 and 1.375 and 1.298 and 1.334 and 1.006 and 1.078 and 1.116 and 1.24 and 1.059
same,"pNQO1-ARE-Luc NRF2 reporter assay, ave",[7]; ave of #1-3 exp,1.343
same,"pNQO1-ARE-Luc NRF2 reporter assay, individual replicates","[7]; two values each of #1, #2, #3 exp, listed as Cyclobakuchiol C",1.496 and 1.13 and 1.492 and 1.034 and 1.043 and 1.865
same,NP/DAPI (%) ave,"[8]; A/PR/8/34, 3.13 uM",6.545%
same,NP/DAPI (%) ave,"[8]; A/PR/8/34, 6.25 uM",2.732%
same,NP/DAPI (%) ave,"[8]; A/PR/8/34, 12.5 uM",1.281%
same,NP/DAPI (%) ave,"[8]; A/PR/8/34, 25 uM",1.024%
same,IC50,"[8]; Influenza A virus, PR/8, MDCK, read-out: half maximal (50%) inhibitory concentration (IC50)",4.6 ± 2.2 µM
same,NP/DAPI (%) ave,"[9]; 3.13uM, ave of 9 values (3 exp)",25.0115%
same,NP/DAPI (%) ave,"[9]; 6.25uM, ave of 9 values (3 exp)",26.7813%
same,NP/DAPI (%) ave,"[9]; 12.5uM, ave of 9 values (3 exp)",26.2263%
same,NP/DAPI (%) ave,"[9]; 25uM, ave of 9 values (3 exp)",34.9195%
same,NP/DAPI (%) ave,"[9]; ave summary, 3.13%",25.0115%
same,NP/DAPI (%) ave,"[9]; ave summary, 6.25%",26.7813%
same,NP/DAPI (%) ave,"[9]; ave summary, 12.50%",26.2263%
same,NP/DAPI (%) ave,"[9]; ave summary, 25%",34.9195%

# — paper PMC7997032, “Organic synthesis and anti-influenza A virus activity of cyclobakuchiols A, B, C, and D” (PLoS ONE, 2021)
